{"source": "patent US10568921B1", "about": "“Extract of Vicia faba beans” (priority 2018, dated 2020)", "system": "strychnine-induced convulsions", "assay": "Strychnine-induced convulsions in mice, i.p. pretreatment with test substance", "assay_type": "in vivo, BALB/c mice", "key": {"[1]": {"conditions": "50 mg/kg i.p. + strychnine 0.45 mg/kg i.p., individual mice No. 1-10"}}, "note": "“And” between values parts separate entries of the source, which are not always exact repeats. Equal entries are not always repeated."}
{"smiles": "CCC1(c2ccccc2)C(=O)NC(=O)NC1=O", "note": "[Phenobarbitone, phenobarbitone]", "values": [{"measurement": "Survival recovered time after strychnine injection", "setting": "[1]", "result": "80 minutes (3×) and 90 minutes and 70 minutes (3×) and 75 minutes (3×)"}, {"measurement": "Time to first convulsion", "setting": "[1]", "result": "5 minutes and 7 minutes (3×) and 6.5 minutes and 8 minutes (2×) and 9 minutes (2×) and 10 minutes"}, {"measurement": "Survival recovered time after strychnine injection, mean", "setting": "50 mg/kg i.p. + strychnine 0.45 mg/kg i.p., mean of 10 mice", "result": "76.5 ± 5.58", "unit": "min"}, {"measurement": "Protection against strychnine-induced convulsions (in words)", "setting": "50 mg/kg i.p. before strychnine (A-1 twenty minutes, phenobarbitone 15 minutes), mice", "result": "protected against the strychnine-induced convulsions, completely"}]}
